Data from patent US20170059568A1, “Identification of JC viral epitopes by cytotoxic T lymphocytes in healthy individuals and their use in assays” (JANSSEN PHARMACEUTICA NV, priority 2014, published 2017).

Legend:
Type in all cases: cell-based, human
CD8+-enriched PBMC [1] = assay: Direct ex vivo IFN-gamma ELISPOT screening of 98 predicted JCPyV MHC class I peptides in 92 healthy subjects; details: for Positive Donors (p < 0.1): number of responding donors among about 10 donors of the predicted HLA allotype, 5*10^5 CD8+-enriched PBMC per well; for Positive Donors (p < 0.1) / tested donors/subjects with significant T cell response to the peptide: peptide 10 μM; for tested donors/subjects with significant T cell response to the peptide: initial screening, allotype-specific subjects; for JCPyV-seronegative subjects reacting against the peptide, out of 22: 22 JCPyV VP1 antibody-seronegative subjects with CTL response; for JCPyV-seronegative subjects reacting against the peptide: 22 JCPyV VP1 antibody-seronegative subjects with CTL response (adj p<0.1); for all subjects tested showing a positive response: independent of HLA-type
Method: The 9-mer and 10-mer JCPy virus test peptides were synthesized and HPLC purified to >90% (Thermo Fisher Scientific, GmbH). Peptides were solubilized in DMSO and used in ELISPOT (Mabtech, Sweden) at 10 μM.
(§1) To enrich for the CD8+ T cell population, CD4+ cells were depleted from the PBMC using magnetic cell separation, according to the manufacturer's instructions (StemCell Technologies, Vancouver, Canada).
(§2) PBMC from selected subjects were thawed, washed and seeded onto anti-IFN-γ coated 96-well plates (Mabtech, Sweden) at 2.5*10^5 or 5*10^5 cells per well. Test antigens were diluted in the assay media and added to the cells at the specified doses. Assay medium containing DMSO, and assay medium alone were included as blank conditions for all donors. Cells were incubated for 16-18 hours in a humidified atmosphere at 37° C., 5% CO2. After the incubation period the cells were washed from the plates and an in-house spot development procedure was used to determine IFN-γ production (Lonza, Cambridge, UK). Upon completion of spot development, the plates were scanned, counted and QC analysis conducted using the ImmunoSpot Analyzer (Cellular Technologies Ltd, Cleveland, US).
(§3) The spot count per well (i.e. the number of IFN-γ secreting cells per well) in response to each test antigen was analyzed. Mean values were calculated from the triplicate wells for each test condition. Data analysis was then carried out using the distribution free resampling method (DFR). The DFR method compares each test condition against the blank for each donor and calculates whether the difference is statistically significant (p<0.1).
(§4) The ELISPOT with CD8+-enriched PBMC (5*10^5 cells per well) with the standard ELISPOT assay medium without overnight resting period was used in further experiments.
All viral protein (VP1, VP2, agnoprotein, common T, large T Antigen (LTAg), and small t Antigen (stAg) from both JCPyV and BKPyV) sequences were scanned for the presence of putative HLA class I restricted epitopes. Profiling is performed at the allotype level for 16A and 12B, i.e. 28 HLA class I receptors in total. […] Therefore, during the further selection of epitopes with high expected immunogenicity potential, the following aspects were considered: high HLA-A and -B impact of epitopes, high promiscuity of epitopes, specificity to JCPyV proteins, potential preference for 9-mer peptides, minimal similarity of epitopes to human proteome sequences, location of epitopes in the JCPyV protein sequences Based on the in silico predictions, 98 peptides of the JCPyV proteins were finally selected, representing potential T cell epitopes for the major HLA class I allotypes in the global population. To test immunogenicity of these 98 peptides the ten most common HLA allotypes were selected, 5 HLA-A and 5 HLA-B allotypes (A*0101, A*0201, A*0301, A*1101, A*2402, B*0702, B*0801, B*1501, B*3501 and B*4001) and for each HLA allotype we aimed to have approximately 10 peptides that gave the strongest signal in Epibase. Alongside, the positive controls (CEF, VP1 peptide pool, and VP1 p100) and negative controls (medium blank and DMSO) were tested. The control peptide pools gave responses in the expected range, in 87% and 60% of all subjects tested, showing a positive response to the CEF and JCPyV VP1 peptide pools, respectively. […] The results for the other proteins can be found in supplementary Table 1 and 2.

CD8+-enriched PBMC [2] = assay: Direct ex vivo IFN-gamma ELISPOT validation of the top 10 peptides and their pool in 20 donors; details: for donors responding (T cell response): 20 selected donors covering 8 HLA allotypes
Method: The peptide pool of top 10 peptides originating from the initial screening (JCPyV pool) was solubilized in DMSO at 12.5 mg/ml per peptide with a final working concentration of the pool around 10 μM.
as §1, §2, §3, §4
To verify whether the newly identified epitopes were really immunodominant, the 10 newly identified peptides were tested individually or as a peptide pool in the optimized CD8+ T cell enriched direct ex vivo ELISPOT assay. Twenty subjects were selected which cover 8 of the 10 HLA allotypes that were initially selected. […]

CD8+-enriched PBMC [3] = assay: Direct ex vivo IFN-gamma ELISPOT optimization (cell amount, CD8+ enrichment, medium, overnight rest)
Method: as §2
The spot count per well (i.e. the number of IFN-γ secreting cells per well) in response to each test antigen was analyzed. Mean values were calculated from the triplicate wells for each test condition. […]
It has been reported that for some viral peptides, the use of serum-free assay medium and overnight resting of the PBMC before stimulation with peptide can increase peptide specific T cell responses. The influence of assay medium and overnight resting of PBMC was evaluated using only CD8+-enriched PBMC from 5 HLA-A*02 subjects and one non-HLA-A*02 subject.

## FESDSPNRDM (JC polyomavirus) [AP00457]
CD8+-enriched PBMC [1]
  Positive Donors (p < 0.1): 6
CD8+-enriched PBMC [2]
  donors responding (T cell response): 90%

## FLRSSPLVWI (JC polyomavirus) [AP00386]
CD8+-enriched PBMC [1]
  tested donors/subjects with significant T cell response to the peptide: 80%
  Positive Donors (p < 0.1): 8
CD8+-enriched PBMC [2]; 20 donors, peptides tested separately and as pool
  donors with significant T cell response out of 20 tested: 20
CD8+-enriched PBMC [2]
  donors responding (T cell response): 100%

## GEAAATIEV (JC polyomavirus) [AP00460]
CD8+-enriched PBMC [1]
  Positive Donors (p < 0.1): 3

## ILMWEAVTL [AP00410]
CD8+-enriched PBMC [3]; FIG. 1 condition C: CD8+-enriched PBMC 5*10^5 per well, 3 HLA-A*02 and one non-HLA-A*02 subject
  subjects with significant IFN-γ response (DFR method): two subjects responded
CD8+-enriched PBMC [3]; FIG. 2 condition D: CD8+-enriched PBMC, serum containing medium, no overnight rest, 5 HLA-A*02 and one non-HLA-A*02 subject
  donors with significant IFN-γ response: three of them also responded
CD8+-enriched PBMC [1]
  JCPyV-seronegative subjects reacting against the peptide, out of 22: almost all responded
  JCPyV-seronegative subjects reacting against the peptide: 82%
  Positive Donors (p < 0.1): 7
CD8+-enriched PBMC [1]; all 92 subjects
  subjects showing a positive response out of 92 tested: 44
  all subjects tested showing a positive response: 37%
CD8+-enriched PBMC [1]; all 92 subjects, listed as JCPyV VP1 p100 9-mer
  all subjects tested showing a positive response: 48%
CD8+-enriched PBMC [1]; donors with A*0201 and A*2402 allotypes
  significant responses in A*0201 and A*2402 allotypes: 58%

## ILMWEAVTLK [AP00388, JCPyV VP1 p100 10-mer]
CD8+-enriched PBMC [1]; A*2402 donors
  potency at inducing CD8+ T cell responses, 10-mer compared with 9-mer: far less potent than the 9-mer

## LTCGNILMW (JC polyomavirus) [AP00367]
CD8+-enriched PBMC [1]
  Positive Donors (p < 0.1): 4

## MAGVAWIHCL (JC polyomavirus) [AP00423]
CD8+-enriched PBMC [1]
  tested donors/subjects with significant T cell response to the peptide: 90%
  Positive Donors (p < 0.1): 9

## RILIFLLEFL (JC polyomavirus) [AP00402]
CD8+-enriched PBMC [1]
  JCPyV-seronegative subjects reacting against the peptide, out of 22: 8
  JCPyV-seronegative subjects reacting against the peptide: 36%
  Positive Donors (p < 0.1): 6

## SAIAQLGYRF (JC polyomavirus) [AP00441]
CD8+-enriched PBMC [1]
  Positive Donors (p < 0.1): 5

## STISQAFWNL (JC polyomavirus) [AP00400]
CD8+-enriched PBMC [1]
  Positive Donors (p < 0.1): 6

## YPISFLLTDL (JC polyomavirus) [AP00377]
CD8+-enriched PBMC [1]
  Positive Donors (p < 0.1): 5
